Data from patent publication US10259782B2, “ROR gamma (RORγ) modulators” (LEAD PHARMA HOLDING B.V., priority 2015, dated 2019).

target: T1, RORγ (Homo sapiens, UniProt P51449); assay: RORγ GAL4 reporter gene assay (luciferase readout, 293FT cells); format: cell-based; conditions: inhibition of RORγ (GAL4-RORγ-LBD) in transfected 293FT cells, luciferase signal, overnight incubation; read-out: mean pIC50 (converted)
T1 construct: expressed in transfected cells; host or cells: 293FT cells (Invitrogen), expression vector pFN26A (Promega)
T1 sequence (P51449 269-508 limits assumed): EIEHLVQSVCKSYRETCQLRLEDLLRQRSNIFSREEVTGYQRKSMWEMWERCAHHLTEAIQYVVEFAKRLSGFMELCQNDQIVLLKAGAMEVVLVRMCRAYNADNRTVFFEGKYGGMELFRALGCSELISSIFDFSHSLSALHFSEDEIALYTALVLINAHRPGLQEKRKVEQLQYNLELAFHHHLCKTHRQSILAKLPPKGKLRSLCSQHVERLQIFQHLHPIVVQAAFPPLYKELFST
Protocol: RORγ GAL4 Reporter Gene Assay
Example inhibitors 1-47 were tested for their ability to inhibit RORγ activity in a RORγ GAL4 reporter gene assay. The assay procedure and results are described below.
RORγ GAL4 Reporter Gene Assay Description
A GAL4 one-hybrid reporter system employing luciferase readout was established to determine inhibition of RORγ in 293FT cells. The RORγ ligand-binding domain (LBD) was fused to the yeast GAL4 DNA binding domain (DBD) and placed under the control of the human cytomegalovirus (CMV) immediate early promoter, using expression vector pFN26A (Promega) and standard recombinant DNA cloning methods. To serve as a control in the assay, a similar vector was generated in which the GAL4-DBD was fused to Herpes simplex virus protein 16 (VP16), a constitutive transcriptional activator.
To monitor the inhibitory effect of compounds on RORγ, a transcriptional reporter construct was used. The pGL4.35 vector (Promega) contains nine copies of the GAL4 Upstream Activator Sequence (UAS). This sequence drives the transcription of the luciferase reporter gene luc2P in response to binding of a fusion protein containing the GAL4 DNA binding domain, as for example expressed by the GAL4-RORγ-LBD and GAL4-VP16 expression vectors described above. To allow a GAL4 fusion protein to drive the expression of the luciferase reporter, the pGL4.35 expression vector and the appropriate GAL4 fusion protein expression vector were bulk transfected in the 293FT cells using standard transfection techniques.
The day after transfection, cells were plated into 96 well plates, test compound was added and the plates were incubated overnight. Subsequently, the firefly luciferase activity was quantified using luciferase detection reagent and luminescence readout.
Detailed Assay Description
293FT cells (Invitrogen) were transfected with a GAL4 fusion protein expression vector (as described above) and the transcriptional reporter construct (pGL4.35, Promega). 60 μL of TransIT-293 transfection reagent (Mirus Bio) was added drop wise to 1500 μl Opti-MEM I Reduced Serum Medium (Invitrogen) and incubated at room temperature (RT) for 5 to 20 minutes. 1500 μL of this reagent mixture was added to 5 μg of GAL4 fusion protein expression vector and 5 μg of the transcriptional reporter construct, and incubated at RT for 20 minutes.
To harvest 293FT cells from a T75 flask, first the culture medium was taken off the cells. Subsequently, the cells were washed with Phosphate Buffered Saline (PBS) (Lonza), after which the PBS was removed. To dissociate the cells, 1 ml of TrypLE Express (Invitrogen) was added to the flask, followed by incubation at RT until the cells visually started to detach. Cells were collected in 5 mL of assay medium (DMEM culture medium (Lonza), 10% dialyzed FBS (Invitrogen) and Pen/Strep (Lonza)) to achieve a single cell suspension. 10×10^6 cells were spun down and re-suspended in 10 mL of assay medium. Subsequently, the cell suspension was added to the transfection mix tube, and then transferred as a whole to a T75 flask (Greiner), followed by overnight (16-24 hours) incubation at 37° C. and 5% CO2.
For compound screening, the cells were harvested (as described above) and counted. 13×10^6 cells were spun down, the supernatant was aspirated and the cells were re-suspended in 17.3 mL of assay medium obtaining a cell suspension of 0.75×10^6 cells/mL. 80 μL of cell suspension (60,000 cells) was plated per well into a white, flat bottom, tissue culture treated, 96 well screening plates (Greiner).
Test compounds were diluted, starting from a 10 mM dimethylsulf oxide (DMSO) stock solution, to serial dilutions in DMSO at 500× the final test concentration. Subsequently, these solutions were diluted to 5× the final test concentration in two 10-fold-dilution steps in assay medium. The final DMSO concentration of the 5× test compound solution was 1%. […]

Row | IC50 [nM] | Structure (SMILES)
1 | ≤ 100 | O=C(Cc1ccc(S(=O)(=O)CC2CC2)cc1)Nc1nc(-c2ccccc2)c(C(=O)c2ccccc2)s1 [Example 22, N-(5-benzoyl-4-phenyl-1,3-thiazol-2-yl)-2-(4-cyclopropylmethanesulfonylphenyl)acetamide]
2 | ≤ 100 | O=C(Cc1ccc(S(=O)(=O)CC2CC2)cc1)Nc1ccc(-c2cccc(F)c2)c(Oc2cccc(C(F)(F)F)c2)c1 [Example 11, 2-(4-cyclopropylmethanesulfonylphenyl)-N-[4-(3-fluorophenyl)-3-[3-(trifluoromethyl)phenoxy]phenyl]acetamide]
3 | ≤ 1000 | O=C(Cc1ccc(S(=O)(=O)CC2CC2)cc1)Nc1ccc(-c2cnco2)cc1 [Example 43, 2-(4-cyclopropylmethanesulfonylphenyl)-N-[4-(1,3-oxazol-5-yl)phenyl]acetamide]
4 | ≤ 1000 | O=C(Cc1ccc(S(=O)(=O)CC2CC2)cc1)Nc1nc(-c2ccccc2)c(Oc2cccnc2)s1 [Example 21, 2-(4-cyclopropylmethanesulfonylphenyl)-N-[4-phenyl-5-(pyridin-3-yloxy)-1,3-thiazol-2-yl]acetamide]
